{"source": "patent US12403184B2", "about": "“Compositions and methods for treating neurodegenerative disroders” (priority 2018, dated 2025)", "key": {"[1]": {"tested_on": "Drp1 with its mitochondrial adaptors Mff, Fis1 and MIEF1", "test": "Immunoprecipitation of Drp1 with mitochondrial adaptors after crosslinking", "assay_type": "cell-based, mouse", "settings": "HdhQ111 cells, 1 μM/day for 4 days", "method": "For Drp1-Mff or Drp-MiD51 (MIEF1) interaction, the cells were cross-linked by […] for 10 min at r.t., then […] in PBS was added to quench the redundant DSP activity. For Drp1-Fis1 interaction, the cells were cross-linked by 1% FA for 20 min at r.t., then added […] in PBS to quench the redundant activity. The cells were washed with PBS, sonicated, and lysed with 1% Triton X-100 total lysis buffer."}, "[2]": {"tested_on": "HdhQ7 and HdhQ111 cells", "test": "Mitochondrial respiratory activity (Seahorse analyzer)", "assay_type": "cell-based, mouse", "method": "Mitochondrial respiration activity in HdhQ7 and HdhQ111 cells was analyzed using a Seahorse Bioscience XFp Extracellular Flux Analyzer. The cells were seeded in XFp […] microplates at 6,000 cells per well in 50 μl of growth medium. One hour prior to measuring oxygen consumption, the cell culture media was replaced with XF assay medium and maintained in a non-CO2 incubator for 1 h. The sensor cartridges were placed in the XFp Analyzer according to the manufacturer's instructions for the Mito Stress Test kit. In brief, mitochondrial function was determined by the sequential injection of oligomycin A (2.5 μg/mL), FCCP (1 μM), and antimycin A (4 μM). Following each experiment, the total cellular number of each well was determined using DAPI staining."}, "[3]": {"tested_on": "mtDNA", "test": "Measurement of mtDNA content", "assay_type": "cell-based, mouse", "settings": "HdhQ111 cells, relative to TAT", "method": "Total DNA was isolated from cells using Blood and Cell culture kit (QIAGEN), and then subject to qPCR using QuantiTect SYBR Green (QIAGEN). Quantitative PCR was performed using nuclear primers (GAPDH or Tert) and mtDNA primers (mt-CO2, mt-ND2, mt-CO1 and D-loop). Three technical replicates were performed for each biological sample, and the mtDNA abundance of each replicate were normalized against nuclear DNA using the 2-ΔΔCT method."}, "[4]": {"tested_on": "neurons derived from HD patients", "test": "Cell death by LDH release in neurons derived from iPS cells", "assay_type": "cell-based, human", "method": "iPS cells from a normal subject and a HD patient (carrying 41 CAG repeats) were differentiated into neurons using the protocol from our previous studies. Briefly, the iPS cells were plated onto 6-well plates precoated with 2.5% Matrigel and allowed to reach 90% confluence in feeder-free medium. For the first 10 days, the cells were treated with SB431542 (10 μM; Tocris Bioscience) and Noggin (100 ng/ml) in Neural Media (NM) containing Neurobasal and DMEM (1:1), B-27 supplement minus vitamin A (50×, Invitrogen), N2 supplement (100×, Invitrogen), GlutaMax (Invitrogen, 100×), FGF2 ([…]) and EGF ([…]), and 100 units/ml penicillin and 100 μg/ml streptomycin). For the next 10 days, the cells were treated with human recombinant Sonic hedgehog (SHH, 200 ng/ml), DKK1 (100 ng/ml) and BDNF (20 ng/ml), and 10 μM Y27632 (Sigma) in neuronal differentiation medium containing Neurobasal and DMEM (1:3), B27, N2, GlutaMax, and PS. Cells were then switched to treatment with BDNF (20 ng/ml), ascorbic acid (200 μM, Sigma-Aldrich), cAMP (0.5 mM, Sigma-Aldrich), and Y27632 (10 μM) in neuronal differentiation medium. All growth factors were purchased from PeproTech (Rocky Hill, NJ, USA). […]\nCells were treated as described, and cell death was determined by using Cytotoxicity Detection Kit (LDH) according to protocols recommended by the manufacturer (Roche)."}, "[5]": {"tested_on": "TFAM and mtDNA LSP", "test": "TFAM-mtDNA binding assay (biotin-streptavidin pull down)", "assay_type": "cell-based, mouse", "settings": "HdhQ111 cells, relative to TAT", "method": "Total lysates were isolated from cells with the indicated treatments, and then incubated with biotinylated LSP DNA probe (Biotin-LSP) or LSP (control) overnight at 4° C. Then streptavidin agarose beads (Thermo Fisher Scientific) were added for 1 h at 4° C. After incubation, the biotinstreptavidin complex was washed 3-5 times (1 ml/time) at 4° C. and subject to western blot analysis. To validate the LSP binding specificity to TFAM, 10 times (molar ratio) of non-labeled LSP was pre-incubated with an equal amount of lysate for 2 h prior to addition of the biotin-LSP probe."}, "[6]": {"tested_on": "HD R6/2 mice", "test": "Body weight, survival and behavior in HD R6/2 mice", "assay_type": "in vivo, mouse", "method": "Male R6/2 mice and their wild-type (WT) littermates (5 weeks old) were purchased from Jackson Laboratories [Bar Harbor, ME; B6CBA-TgN (HD exon1) 62; JAX stock number: 006494]. These mice (C57BL/6 and CBA genetic background) are transgenic for the 5′ end of the human HD gene carrying 100-150 glutamine (CAG) repeats.\nSystemic peptide treatment in HD mice. All randomization and peptide treatments were prepared by an experimenter not associated with behavioral and neuropathology analysis. Male R6/2 mice (Tg) and their age-matched wild-type littermates (Wt) (6-week-old) were implanted with a 28-day osmotic pump (Alzet, Cupertino CA, Model 2004) containing TAT control peptide or DA1 peptide, which delivered peptides at a rate of 1 mg/kg/day. Male YAC128 mice (Tg) and their age-matched wild-type littermates (WT) were treated with TAT control peptide or DA1 peptide (1 mg/kg/day) by Alzet osmotic pump starting from the age of 3 months. The pump was replaced once every month.\nGross locomotor activity was assessed in R6/2 mice and age-matched wild-type littermates at the ages of 12 weeks, and in YAC128 mice and age-matched wildtype littermates at the ages of 2, 3, 6, 9, and 12 months. The mice were placed in the center of an activity chamber (Omnitech Electronics, Inc) and allowed to explore while being tracked by an automated beam system (Vertax, Omnitech Electronics Inc). Distance moved, horizontal and vertical activities were recorded. In R6/2 mice and wildtype littermates, one-hour locomotor activity was conducted. In YAC128 mice and wildtype littermates, 24 h of locomotor activity analysis was performed.\nHindlimb clasping was assessed with the tail suspension test once a week from the ages 8 to 12 weeks in R6/2 mice. The mice were suspended by the tail for 60 s, and the latency for the hindlimbs or all four paws to clasp was recorded using the score system: Clasping over 10 s, score 3; 5-10 s, score 2; 0-5 s, score 1; and 0 s, score 0.\nThe body weight and survival rate of HD mice and wild-type littermates were recorded throughout the study period."}, "[7]": {"settings": "R6/2 mice at the age of 12 weeks"}}, "note": "Where no end group is shown, it is not given here.", "data": [{"substance": "YGRKKRRQRRRGGEDKRKT-NH2 [DA1, YGRKKRRQRRR-GG-EDKRKT-NH2]", "values": [{"measurement": "interactions of Drp1 with its mitochondrial adaptors Mff, Fis1 and MIEF1", "setting": "[1]", "result": "did not influence"}, {"measurement": "mitochondrial respiratory activity", "setting": "[2]; HdhQ7 cells", "result": "minor effects"}, {"measurement": "ATP production", "setting": "[2]; HdhQ111 cells", "result": "improved"}, {"measurement": "maximal respiratory capacity", "setting": "[2]; HdhQ111 cells", "result": "improved"}, {"measurement": "spare respiratory capacity", "setting": "[2]; HdhQ111 cells", "result": "improved"}, {"measurement": "mitochondrial respiratory defects", "setting": "[2]; HdhQ111 cells, 1 μM/day for 4 days", "result": "attenuated"}, {"measurement": "mtDNA copy number", "setting": "[3]", "result": "increased"}, {"measurement": "neuronal survival", "setting": "[4]; cells derived from iPS cells of normal subject", "result": "no observed effects"}, {"measurement": "cell death (LDH release)", "setting": "[4]; neurons derived from HD patients, BDNF withdrawal for 24 h", "result": "decreased"}, {"measurement": "binding of TFAM and mtDNA", "setting": "[5]", "result": "restored"}, {"measurement": "body weight loss", "setting": "[6]; HD R6/2 mice, 1 mg/kg/day from 6 weeks, vs TAT", "result": "moderately suppressed"}, {"measurement": "survival", "setting": "[6]; HD R6/2 mice, age 6 to 21 weeks, 1 mg/kg/day", "result": "greatly prolonged"}, {"measurement": "horizontal activity", "setting": "[6]; [7]", "result": "increased"}, {"measurement": "total traveled distance", "setting": "[6]; [7]", "result": "increased"}, {"measurement": "severity of clasping behavior", "setting": "[6]; R6/2 mice, four-week observation period", "result": "reduced"}]}]}
